Assay results published in US6737383B1, “Herbicidal oxadiazolidines” (priority 1999, dated 2004).

Columns and labels:
bedstraw = assay: Test B pre/postemergence bedstraw; assay type: in vivo, Galium aparine
In short: (§1)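 Response is a visual 0-to-10 score relative to untreated plants, where 0 means no effect and 10 means complete control, taken twelve to sixteen days after application. Treatments went onto soil at planting and onto foliage of 1- to 4-leaf plants, using a surfactant-containing non-phytotoxic solvent.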

blackgrass = assay: Test B pre/postemergence blackgrass; assay type: in vivo, Alopecurus myosuroides
In short: as §1

surinam grass = assay: Test B pre/postemergence surinam grass; assay type: in vivo, Brachiaria decumbens
In short: as §1

cocklebur = assay: Test B pre/postemergence cocklebur; assay type: in vivo, Xanthium strumarium
In short: as §1

corn = assay: Test B pre/postemergence corn; assay type: in vivo, Zea mays
In short: as §1

crabgrass = assay: Test B pre/postemergence crabgrass; assay type: in vivo, Digitaria sanguinalis
In short: as §1

giant foxtail = assay: Test B pre/postemergence giant foxtail; assay type: in vivo, Setaria faberii
In short: as §1

morningglory = assay: Test B pre/postemergence morningglory; assay type: in vivo, Ipomoea hederacea
In short: as §1

pigweed = assay: Test B pre/postemergence pigweed; assay type: in vivo, Amaranthus retroflexus
In short: as §1

rape = assay: Test B pre/postemergence rape; assay type: in vivo, Brassica napus
In short: as §1

soybean = assay: Test B pre/postemergence soybean; assay type: in vivo, Glycine max
In short: as §1

sugar beet = assay: Test B pre/postemergence sugar beet; assay type: in vivo, Beta vulgaris
In short: as §1

velvetleaf = assay: Test B pre/postemergence velvetleaf; assay type: in vivo, Abutilon theophrasti
In short: as §1

wheat = assay: Test B pre/postemergence wheat; assay type: in vivo, Triticum aestivum
In short: as §1

wild oat = assay: Test B pre/postemergence wild oat; assay type: in vivo, Avena fatua
In short: as §1

purple nutsedge = assay: Test B pre/postemergence purple nutsedge; assay type: in vivo, Cyperus rotundus
In short: as §1

[1] = Preemergence, Rate 62 g/ha, scale 0 to 10 (0 no effect, 10 complete control)
[2] = Preemergence, Rate 125 g/ha, scale 0 to 10, 0 is no effect, 10 is complete control
[3] = Preemergence, Rate 500 g/ha, scale of 0 to 10 where 0 is no effect and 10 is complete control
[4] = Postemergence, Rate 62 g/ha, scale of 0 to 10, 0 is no effect, 10 is complete control
[5] = Postemergence, Rate 125 g/ha, scale 0 to 10, 0 is no effect, 10 is complete control
[6] = Rate 250 g/ha, Postemergence, scale of 0 to 10 where 0 is no effect and 10 is complete control
[7] = Postemergence, Rate 500 g/ha, scale of 0 to 10 where 0 is no effect and 10 is complete control
[8] = Postemergence, Rate 500 g/ha, scale 0 to 10, 0 is no effect, 10 is complete control
[9] = Preemergence, Rate 62 g/ha, scale of 0 to 10 where 0 is no effect and 10 is complete control
[10] = Preemergence, Rate 250 g/ha, scale 0 to 10, 0 is no effect, 10 is complete control
[11] = Preemergence, Rate 500 g/ha, scale 0 to 10, 0 is no effect, 10 is complete control
[12] = Postemergence, Rate 250 g/ha, scale 0 to 10

## CC(C)=CCn1c(=O)on(C(=O)N(c2ccccc2)C(C)C)c1=O [Compound 574]
bedstraw; [1]
  Bedstraw plant response rating: 0
bedstraw; [2]
  Bedstraw plant response rating: 0
bedstraw; Preemergence, Rate 250 g/ha
  Bedstraw plant response rating (0 to 10 scale): 0
bedstraw; [3]
  Bedstraw plant response rating: 0
blackgrass; [4]
  Blackgrass plant response rating: 2
blackgrass; [5]
  Blackgrass plant response rating: 6
blackgrass; [1]
  Blackgrass plant response rating: 0
blackgrass; [2]
  Blackgrass plant response rating: 0
blackgrass; Preemergence, Rate 250 g/ha
  Blackgrass plant response rating (0 to 10 scale): 2
blackgrass; [3]
  Blackgrass plant response rating: 2
blackgrass; [6]
  Plant response rating, Blackgrass: 6
Surinam grass; [4]
  B. signalgrass plant response rating: 0
Surinam grass; [5]
  B. signalgrass plant response rating: 0
Surinam grass; [7]
  Plant response rating, B. signalgrass: 0
Surinam grass; [1]
  B. signalgrass plant response rating: 4
Surinam grass; [2]
  B. signalgrass plant response rating: 7
Surinam grass; Preemergence, Rate 250 g/ha
  B. signalgrass plant response rating (0 to 10 scale, 0 is no effect, 10 is complete control): 10
Surinam grass; [3]
  B. signalgrass plant response rating: 9
Surinam grass; [6]
  Plant response rating, B. signalgrass: 0
cocklebur; [4]
  Cocklebur plant response rating: 0
cocklebur; [5]
  Cocklebur plant response rating: 2
cocklebur; [7]
  Plant response rating, Cocklebur: 2
cocklebur; [1]
  Cocklebur plant response rating: 0
cocklebur; [2]
  Cocklebur plant response rating: 0
cocklebur; Preemergence, Rate 250 g/ha
  Cocklebur plant response rating (0 to 10 scale): 0
cocklebur; [3]
  Cocklebur plant response rating: 0
cocklebur; [6]
  Plant response rating, Cocklebur: 2
corn; [4]
  Corn plant response rating: 0
corn; [5]
  Corn plant response rating: 0
corn; [7]
  Plant response rating, Corn: 0
corn; [1]
  Corn plant response rating: 0
corn; [2]
  Corn plant response rating: 0
corn; Preemergence, Rate 250 g/ha
  Corn plant response rating (0 to 10 scale): 0
corn; [3]
  Corn plant response rating: 0
corn; [6]
  Plant response rating, Corn: 0
crabgrass; [4]
  Crabgrass plant response rating: 0
crabgrass; [5]
  Crabgrass plant response rating: 2
crabgrass; [7]
  Plant response rating, Crabgrass: 2
crabgrass; [1]
  Crabgrass plant response rating: 2
crabgrass; [2]
  Crabgrass plant response rating: 9
crabgrass; Preemergence, Rate 250 g/ha
  Crabgrass plant response rating (0 to 10 scale): 9
crabgrass; [3]
  Crabgrass plant response rating: 9
Giant foxtail; [4]
  Giant foxtail plant response rating: 2
Giant foxtail; [5]
  Giant foxtail plant response rating: 7
Giant foxtail; [7]
  Plant response rating, Giant foxtail: 8
Giant foxtail; [1]
  Giant foxtail plant response rating: 9
Giant foxtail; [2]
  Giant foxtail plant response rating: 10
Giant foxtail; Preemergence, Rate 250 g/ha
  Giant foxtail plant response rating (0 to 10 scale): 10
Giant foxtail; [3]
  Giant foxtail plant response rating: 10
Giant foxtail; [6]
  Plant response rating, Giant foxtail: 6
morningglory; [4]
  Morningglory plant response rating: 10
morningglory; [5]
  Morningglory plant response rating: 10
morningglory; [7]
  Plant response rating, Morningglory: 10
morningglory; [1]
  Morningglory plant response rating: 0
morningglory; [2]
  Morningglory plant response rating: 0
morningglory; Preemergence, Rate 250 g/ha
  Morningglory plant response rating (0 to 10 scale): 0
morningglory; [3]
  Morningglory plant response rating: 0
morningglory; [6]
  Plant response rating, Morningglory: 10
pigweed; [7]
  Plant response rating, Redroot pigweed: 5
pigweed; [1]
  Redroot pigweed plant response rating: 0
pigweed; [2]
  Redroot pigweed plant response rating: 0
pigweed; [3]
  Redroot pigweed plant response rating: 9
pigweed; [6]
  Plant response rating, Redroot pigweed: 0
rape; [4]
  Rape plant response rating: 0
rape; [5]
  Rape plant response rating: 0
rape; [7]
  Plant response rating, Rape: 3
rape; [1]
  Rape plant response rating: 0
rape; [2]
  Rape plant response rating: 0
rape; Preemergence, Rate 250 g/ha
  Rape plant response rating (0 to 10 scale): 0
rape; [3]
  Rape plant response rating: 0
rape; [6]
  Plant response rating, Rape: 0
soybean; [7]
  Plant response rating, Soybean: 7
soybean; [1]
  Soybean plant response rating: 0
soybean; [2]
  Soybean plant response rating: 0
soybean; Preemergence, Rate 250 g/ha
  Soybean plant response rating (0 to 10 scale): 0
soybean; [3]
  Soybean plant response rating: 0
soybean; [6]
  Plant response rating, Soybean: 6
Sugar beet; [7]
  Plant response rating, Sugarbeets: 0
Sugar beet; [1]
  Sugarbeets plant response rating: 0
Sugar beet; [2]
  Sugarbeets plant response rating: 0
Sugar beet; Preemergence, Rate 250 g/ha
  Sugarbeets plant response rating (0 to 10 scale): 0
Sugar beet; [3]
  Sugarbeets plant response rating: 3
Sugar beet; [6]
  Plant response rating, Sugarbeets: 0
velvetleaf; [7]
  Plant response rating, Velvetleaf: 2
velvetleaf; [1]
  Velvetleaf plant response rating: 0
velvetleaf; [2]
  Velvetleaf plant response rating: 0
velvetleaf; Preemergence, Rate 250 g/ha
  Velvetleaf plant response rating (0 to 10 scale): 2
velvetleaf; [3]
  Velvetleaf plant response rating: 2
velvetleaf; [6]
  Plant response rating, Velvetleaf: 2
wheat; [7]
  Plant response rating, Wheat: 2
wheat; [1]
  Wheat plant response rating: 0
wheat; [2]
  Wheat plant response rating: 0
wheat; Preemergence, Rate 250 g/ha
  Wheat plant response rating (0 to 10 scale): 0
wheat; [3]
  Wheat plant response rating: 0
wheat; [6]
  Plant response rating, Wheat: 0
Wild oat; [7]
  Plant response rating, Wild oats: 0
Wild oat; [1]
  Wild oats plant response rating: 0
Wild oat; [2]
  Wild oats plant response rating: 0
Wild oat; Preemergence, Rate 250 g/ha
  Wild oats plant response rating (0 to 10 scale): 0
Wild oat; [3]
  Wild oats plant response rating: 3
Wild oat; [6]
  Plant response rating, Wild oats: 0
Purple nutsedge; [4]
  Nutsedge plant response rating: 0
Purple nutsedge; [7]
  Plant response rating, Nutsedge: 0
Purple nutsedge; [1]
  Nutsedge plant response rating: 0
Purple nutsedge; [2]
  Nutsedge plant response rating: 0
Purple nutsedge; Preemergence, Rate 250 g/ha
  Nutsedge plant response rating (0 to 10 scale): 0
Purple nutsedge; [3]
  Nutsedge plant response rating: 0
Purple nutsedge; [6]
  Plant response rating, Nutsedge: 0

## CCOCn1c(=O)on(C(=O)N(c2ccc(F)cc2F)C(C)C)c1=O [Compound 504]
bedstraw; [5]
  Bedstraw plant response rating: 8
bedstraw; [8]
  Plant response rating, Bedstraw: 9
bedstraw; [9]
  Plant response rating, Bedstraw: 2
bedstraw; [2]
  Bedstraw plant response rating: 5
bedstraw; [10]
  Bedstraw plant response rating: 8
bedstraw; [11]
  Bedstraw plant response rating: 8
blackgrass; [4]
  Blackgrass plant response rating: 6
blackgrass; [5]
  Blackgrass plant response rating: 7
blackgrass; [12]
  Blackgrass plant response rating: 7
blackgrass; [8]
  Plant response rating, Blackgrass: 8
blackgrass; [9]
  Plant response rating, Blackgrass: 6
blackgrass; [2]
  Blackgrass plant response rating: 8
blackgrass; [10]
  Blackgrass plant response rating: 10
blackgrass; [3]
  Blackgrass plant response rating: 10
Surinam grass; [4]
  B. signalgrass plant response rating: 0
Surinam grass; [5]
  B. signalgrass plant response rating: 3
Surinam grass; Postemergence, Rate 250 g/ha, scale 0 to 10, 0 no effect, 10 complete control
  B. signalgrass plant response rating: 8
Surinam grass; [8]
  Plant response rating, B. signalgrass: 9
Surinam grass; [9]
  Plant response rating, B. signalgrass: 7
Surinam grass; [2]
  B. signalgrass plant response rating: 10
Surinam grass; [10]
  B. signalgrass plant response rating: 10
Surinam grass; [11]
  B. signalgrass plant response rating: 10
cocklebur; [4]
  Cocklebur plant response rating: 2
cocklebur; [5]
  Cocklebur plant response rating: 3
cocklebur; [12]
  Cocklebur plant response rating: 6
cocklebur; [8]
  Plant response rating, Cocklebur: 6
cocklebur; [9]
  Plant response rating, Cocklebur: 0
cocklebur; [2]
  Cocklebur plant response rating: 0
cocklebur; [10]
  Cocklebur plant response rating: 0
cocklebur; [3]
  Cocklebur plant response rating: 0
corn; [4]
  Corn plant response rating: 0
corn; [5]
  Corn plant response rating: 2
corn; [12]
  Corn plant response rating: 2
corn; [8]
  Plant response rating, Corn: 6
corn; [9]
  Plant response rating, Corn: 0
corn; [2]
  Corn plant response rating: 5
corn; [3]
  Corn plant response rating: 6
crabgrass; [4]
  Crabgrass plant response rating: 8
crabgrass; [5]
  Crabgrass plant response rating: 8
crabgrass; [12]
  Crabgrass plant response rating: 9
crabgrass; [8]
  Plant response rating, Crabgrass: 10
crabgrass; [9]
  Plant response rating, Crabgrass: 6
crabgrass; [2]
  Crabgrass plant response rating: 6
crabgrass; [3]
  Crabgrass plant response rating: 10
Giant foxtail; [4]
  Giant foxtail plant response rating: 8
Giant foxtail; [5]
  Giant foxtail plant response rating: 9
Giant foxtail; [8]
  Plant response rating, Giant foxtail: 9
Giant foxtail; [9]
  Plant response rating, Giant foxtail: 9
Giant foxtail; [2]
  Giant foxtail plant response rating: 9
Giant foxtail; [3]
  Giant foxtail plant response rating: 10
morningglory; [4]
  Morningglory plant response rating: 4
morningglory; [5]
  Morningglory plant response rating: 4
morningglory; [8]
  Plant response rating, Morningglory: 6
morningglory; [9]
  Plant response rating, Morningglory: 0
morningglory; [2]
  Morningglory plant response rating: 0
morningglory; [3]
  Morningglory plant response rating: 4
pigweed; [4]
  Redroot pigweed plant response rating: 7
pigweed; [5]
  Redroot pigweed plant response rating: 8
pigweed; [8]
  Plant response rating, Redroot pigweed: 9
pigweed; [9]
  Plant response rating, Redroot pigweed: 10
pigweed; [2]
  Redroot pigweed plant response rating: 10
pigweed; [3]
  Redroot pigweed plant response rating: 10
rape; [4]
  Rape plant response rating: 1
rape; [5]
  Rape plant response rating: 4
rape; [8]
  Plant response rating, Rape: 8
rape; [9]
  Plant response rating, Rape: 5
rape; [2]
  Rape plant response rating: 10
rape; [3]
  Rape plant response rating: 10
soybean; [4]
  Soybean plant response rating: 3
soybean; [5]
  Soybean plant response rating: 6
soybean; [8]
  Plant response rating, Soybean: 7
soybean; [9]
  Plant response rating, Soybean: 0
soybean; [2]
  Soybean plant response rating: 0
soybean; [3]
  Soybean plant response rating: 5
Sugar beet; [4]
  Sugarbeets plant response rating: 5
Sugar beet; [5]
  Sugarbeets plant response rating: 7
Sugar beet; [8]
  Plant response rating, Sugarbeets: 9
Sugar beet; [9]
  Plant response rating, Sugarbeets: 4
Sugar beet; [2]
  Sugarbeets plant response rating: 6
Sugar beet; [3]
  Sugarbeets plant response rating: 9
velvetleaf; [4]
  Velvetleaf plant response rating: 1
velvetleaf; [5]
  Velvetleaf plant response rating: 4
velvetleaf; [8]
  Plant response rating, Velvetleaf: 7
velvetleaf; [9]
  Plant response rating, Velvetleaf: 1
velvetleaf; [2]
  Velvetleaf plant response rating: 5
velvetleaf; [3]
  Velvetleaf plant response rating: 10
wheat; [4]
  Wheat plant response rating: 0
wheat; [5]
  Wheat plant response rating: 3
wheat; [8]
  Plant response rating, Wheat: 6
wheat; [9]
  Plant response rating, Wheat: 2
wheat; [2]
  Wheat plant response rating: 6
wheat; [3]
  Wheat plant response rating: 8
Wild oat; [4]
  Wild oats plant response rating: 0
Wild oat; [5]
  Wild oats plant response rating: 6
Wild oat; [8]
  Plant response rating, Wild oats: 7
Wild oat; [9]
  Plant response rating, Wild oats: 6
Wild oat; [2]
  Wild oats plant response rating: 8
Wild oat; [3]
  Wild oats plant response rating: 10
Purple nutsedge; [4]
  Nutsedge plant response rating: 0
Purple nutsedge; [5]
  Nutsedge plant response rating: 0
Purple nutsedge; [8]
  Plant response rating, Nutsedge: 3
Purple nutsedge; [9]
  Plant response rating, Nutsedge: 2
Purple nutsedge; [2]
  Nutsedge plant response rating: 0
Purple nutsedge; [3]
  Nutsedge plant response rating: 8
